Reference: patent US20180057505A1, “BICYCLIC HETEROARYL COMPOUNDS USEFUL AS INHIBITORS OF THE PAR-2 SIGNALING PATHWAY” (VERTEX PHARMACEUTICALS INCORPORATED, priority 2015, published 2018)

Tests used:
Assay type in all cases: cell-based
PAR2 (HT-29 cells) [1] = molecular target: T1, PAR2 (HT-29 cells) (Homo sapiens, UniProt P55085); experiment: Ca FLIPR TETRA assay, ANTAGONIST mode, activator 8 μM SLIGKV; details: HT-29 cells; activator 8 μM SLIGKV; Method A: maximal concentration of antagonist 0.1, 1 or 2 μM
T1 construct: host or cells: HT-29
T1 sequence (P55085 26-397): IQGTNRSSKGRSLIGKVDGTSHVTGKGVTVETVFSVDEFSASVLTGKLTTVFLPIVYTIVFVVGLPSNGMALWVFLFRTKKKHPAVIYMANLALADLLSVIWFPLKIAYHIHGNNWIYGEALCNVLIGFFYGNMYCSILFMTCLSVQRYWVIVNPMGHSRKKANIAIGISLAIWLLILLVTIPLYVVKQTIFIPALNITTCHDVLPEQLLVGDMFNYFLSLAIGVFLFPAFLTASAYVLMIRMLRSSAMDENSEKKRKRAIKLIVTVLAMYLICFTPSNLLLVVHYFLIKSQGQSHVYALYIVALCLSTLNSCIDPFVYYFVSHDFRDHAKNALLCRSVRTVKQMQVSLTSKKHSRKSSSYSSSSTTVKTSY
Procedure, shortened: (§1)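 HT-29 cells plated overnight at 37 °C in 1% FBS/McCoy's, loaded with calcium 5 dye (45 min 37 °C, 15 min r.t.), then preincubated with compounds 30 min at r.t. before a fixed activator challenge. Intracellular Ca2+ read by FLIPR Tetra; a first read checks compound-alone activation.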

PAR2 (HT-29 cells) [2] = molecular target: T1, PAR2 (HT-29 cells); experiment: Ca FLIPR TETRA assay, ANTAGONIST mode, activator 3.1 U/mL trypsin; details: HT-29 cells; activator 3.1 U/mL trypsin; Method A: maximal concentration of antagonist 0.1, 1 or 2 μM
Procedure, shortened: as §1

[3] = tested on: Thrombin-stimulated Ca2+ response in HT-29 cells; experiment: Ca FLIPR TETRA assay, ANTAGONIST mode, activator 1 U/mL Thrombin; details: HT-29 cells, activator 1 U/mL Thrombin
Procedure, shortened: as §1

[4] = tested on: UTP-stimulated Ca2+ response in HT-29 cells; experiment: Ca FLIPR TETRA assay, ANTAGONIST mode, activator 0.6 μM UTP; details: HT-29 cells, activator 0.6 μM UTP
Procedure, shortened: as §1

Row | IC50 (PAR2 (HT-29 cells) [1]) | IC50 (PAR2 (HT-29 cells) [2]) | IC50 ([3]; Homo sapiens) | IC50 ([4]; Homo sapiens) | IC50 [3] | IC50 [4] | Structure (SMILES)
1 | 0.2 nM | 0.1 nM | > 2000 nM | > 2000 nM | – | – | COc1cc(N2CCN(C(=O)c3cc4nc(-c5ccc(Cl)c(F)c5)cc(C(C)(C)C)c4o3)C(C)(C)C2)ncc1C(=O)O [Example I-534]
2 | 2.1 nM | 1.2 nM | – | – | > 2000 nM | > 2000 nM | COc1nc(N2CCN(C(=O)c3cc4nc(C5CCC(C)(C)CC5)cc(C(C)(C)C)c4o3)C(C)(C)C2)ccc1C(=O)O [Example I-535]
3 | 2.3 nM | 2.2 nM | > 2000 nM | > 2000 nM | – | – | CC(C)(C)c1cc(-c2ccc(Cl)cc2)nc2cc(C(=O)N3CCN(C(=O)[C@@H]4CC[C@H](C(=O)O)C4)CC3(C)C)oc12 [Example I-536]
4 | 0.3 nM | 0.4 nM | > 2000 nM | > 2000 nM | – | – | Cc1ccc(N2CCN(C(=O)c3cc4nc(-c5ccc(Cl)cc5)cc(C(C)(C)C)c4o3)C(C)(C)C2)nc1-c1nnn[nH]1 [Example I-537]
5 | 0.6 nM | 0.6 nM | 1500 nM | 1470 nM | – | – | Cc1c(C(=O)O)ccnc1N1CCN(C(=O)c2cc3nc(-c4ccc(Cl)c(F)c4)cc(C(C)(C)C)c3o2)C(C)(C)C1 [Example I-538]
6 | 1.5 nM | 2.2 nM | – | – | > 2000 nM | > 2000 nM | CC1(C)CCC(c2cc(C(C)(C)C)c3oc(C(=O)N4CCN(c5ccc(-c6nnn[nH]6)cn5)CC4(C)C)cc3n2)CC1 [Example I-539]
7 | 0.3 nM | 0.3 nM | > 2000 nM | > 2000 nM | – | – | CC(C)(C)c1cc(-c2ccc(Cl)c(F)c2)nc2cc(C(=O)N3CCN(c4cccc(C(=O)NS(C)(=O)=O)n4)CC3(C)C)oc12 [Example I-540]
8 | 1.5 nM | 1 nM | > 2000 nM | > 2000 nM | – | – | CC(C)(C)c1cc(-c2ccc(Cl)c(F)c2)nc2cc(C(=O)N3CCC(NC(=O)NS(C)(=O)=O)CC3(C)C)oc12 (stereo not drawn) [Example I-541]
9 | 32 nM | 28 nM | > 2000 nM | > 2000 nM | – | – | CC(C)(C)c1cc(-c2ccc(Cl)c(F)c2)nc2cc(C(=O)N3CCN(S(=O)(=O)NC4CC4)CC3(C)C)oc12 [Example I-542]
10 | 0.6 nM | 0.8 nM | > 2000 nM | > 2000 nM | – | – | CC(C)(C)c1cc(-c2ccc(Cl)c(F)c2)nc2cc(C(=O)N3CCN(C(=O)[C@@H]4CC[C@@H]4C(=O)O)CC3(C)C)oc12 [Example I-543]
11 | 2.5 nM | 3.3 nM | > 2000 nM | > 2000 nM | – | – | Cc1ncc(N2CCN(C(=O)c3cc4nc(C5CCC(C)(C)CC5)cc(C(C)(C)C)c4o3)C(C)(C)C2)nc1C(=O)O [Example I-544]
12 | 0.6 nM | 0.9 nM | > 2000 nM | > 2000 nM | – | – | CC(C)(C)c1cc(-c2ccc(Cl)c(F)c2)nc2cc(C(=O)N3CCN(C(=O)[C@@H]4CCC[C@@H]4C(=O)O)CC3(C)C)oc12 [Example I-545]
13 | 5.4 nM | 7.4 nM | > 2000 nM | > 2000 nM | – | – | CC(C)(C)c1cc(-c2ccc(Cl)c(F)c2)nc2cc(C(=O)N3CCN(c4cccc(C(N)=O)n4)CC3(C)C)oc12 [Example I-546]
14 | 0.09 nM | 0.1 nM | > 2000 nM | > 2000 nM | – | – | CC(C)(C)c1cc(-c2ccc(Cl)c(F)c2)nc2cc(C(=O)N3CCN(C(=O)CC4(C(=O)O)CCCCC4)CC3(C)C)oc12 [Example I-547]

Further lines, the compound ahead of its results:

Row | Structure (SMILES) | IC50 (PAR2 (HT-29 cells) [1]) | IC50 (PAR2 (HT-29 cells) [2]) | IC50 ([3]; Homo sapiens) | IC50 ([4]; Homo sapiens) | IC50 [3] | IC50 [4]
15 | CC(C)(C)c1cc(-c2ccc(Cl)c(F)c2)nc2cc(C(=O)N3CCN(c4ccc(C(=O)O)c(N)n4)CC3(C)C)oc12 [Example I-510] | 0.3 nM | 0.8 nM | > 2000 nM | > 2000 nM | – | –
16 | CC(C)(C)c1cc(-c2ccc(Cl)cc2)nc2cc(C(=O)N3CCN(C(=O)[C@@H]4CCCC[C@H]4C(=O)O)CC3(C)C)oc12 [Example I-511] | 43 nM | 49.5 nM | > 2000 nM | > 2000 nM | – | –
17 | CC(C)(C)c1cc(-c2ccc(Cl)c(F)c2)nc2cc(C(=O)N3CCN(C(=O)[C@@H]4CC[C@H](C(=O)O)C4)CC3(C)C)oc12 [Example I-512] | 19 nM | 18 nM | > 2000 nM | > 2000 nM | – | –
18 | CC(C)(C)c1cc(-c2ccc(Cl)c(F)c2)nc2cc(C(=O)N3CCN(c4cc(C(F)(F)F)cnc4C(=O)O)CC3(C)C)oc12 [Example I-515] | 16 nM | 21 nM | > 2000 nM | > 2000 nM | – | –
19 | CC(C)(C)c1cc(-c2ccc(Cl)c(F)c2)nc2cc(C(=O)N3CCN(c4nc(-c5ccccc5)ccc4C(=O)O)CC3(C)C)oc12 [Example I-516] | 1.8 nM | 2.7 nM | > 2000 nM | > 2000 nM | – | –
20 | CC(C)(C)c1cc(-c2ccc(Cl)c(F)c2)nc2cc(C(=O)N3CCN(c4cc(C(=O)O)c(F)cn4)CC3(C)C)oc12 [Example I-517] | 1.4 nM | 2.3 nM | > 2000 nM | > 2000 nM | – | –
21 | CC(C)(C)c1cc(-c2ccc(Cl)c(F)c2)nc2cc(C(=O)N3CCN(c4ncc(F)cc4C(=O)O)CC3(C)C)oc12 [Example I-518] | 10 nM | 17 nM | > 2000 nM | > 2000 nM | – | –
22 | CC(C)(C)c1cc(-c2ccc(Cl)c(F)c2)nc2cc(C(=O)N3CCN(c4ncncc4C(=O)O)CC3(C)C)oc12 [Example I-519] | 14 nM | 26 nM | > 2000 nM | > 2000 nM | – | –
23 | Cc1cnc(N2CCN(C(=O)c3cc4nc(-c5ccc(Cl)c(F)c5)cc(C(C)(C)C)c4o3)C(C)(C)C2)nc1C(=O)O [Example I-520] | 0.3 nM | 0.4 nM | > 2000 nM | > 2000 nM | – | –
24 | Cc1cnc(N2CCN(C(=O)c3cc4nc(-c5ccc(Cl)cc5)cc(C(C)(C)C)c4o3)C(C)(C)C2)nc1C(=O)O [Example I-521] | 0.7 nM | 1.2 nM | > 2000 nM | > 2000 nM | – | –
25 | CN1CCN(C(=O)c2cc3nc(-c4ccc(Cl)c(F)c4)cc(C(C)(C)C)c3o2)C(C)(C)CC1=O [Example I-522] | 2.5 nM | 2.6 nM | > 2000 nM | > 2000 nM | – | –
26 | Cc1cc(C(=O)N2CCN(C(=O)c3cc4nc(C5CCC(C)(C)CC5)cc(C(C)(C)C)c4o3)C(C)(C)C2)[nH]n1 [Example I-523] | 2 nM | 1.9 nM | > 2000 nM | > 2000 nM | – | –
27 | Cc1ncc(N2CCN(C(=O)c3cc4nc(-c5ccc(Cl)c(F)c5)cc(C(C)(C)C)c4o3)C(C)(C)C2)nc1C(=O)O [Example I-524] | 2 nM | 2.6 nM | > 2000 nM | > 2000 nM | – | –
28 | Cc1ncc(N2CCN(C(=O)c3cc4nc(C5CCC(C)(C)CC5)cc(C(C)(C)C)c4o3)C(C)(C)C2)nc1C(=O)O [Example I-525] | 0.7 nM | 1.4 nM | – | – | 1600 nM | 1650 nM
29 | CN1CC(C)(C)N(C(=O)c2cc3nc(-c4ccc(Cl)c(F)c4)cc(C(C)(C)C)c3o2)CCC1=O [Example I-526] | 240 nM | 147 nM | > 2000 nM | > 2000 nM | – | –
30 | CC(C)(C)c1cc(-c2ccc(Cl)c(F)c2)nc2cc(C(=O)N3CCN(C(=O)NS(C)(=O)=O)CC3(C)C)oc12 [Example I-527] | 31 nM | 45 nM | > 2000 nM | > 2000 nM | – | –
31 | Cc1cc(C(=O)O)c(N2CCN(C(=O)c3cc4nc(-c5ccc(Cl)c(F)c5)cc(C(C)(C)C)c4o3)C(C)(C)C2)nn1 [Example I-528] | 270 nM | 250 nM | > 2000 nM | > 2000 nM | – | –
32 | CC(C)(C)c1cc(-c2ccc(Cl)c(F)c2)nc2cc(C(=O)N3CCN(c4ccc(-c5nnn[nH]5)cn4)CC3(C)C)oc12 [Example I-529] | 1 nM | 1.2 nM | > 2000 nM | > 2000 nM | – | –
33 | Cn1cnnc1N1CCN(C(=O)c2cc3nc(C4CCC(C)(C)CC4)cc(C(C)(C)C)c3o2)C(C)(C)C1 [Example I-530] | 6.8 nM | 5 nM | > 2000 nM | > 2000 nM | – | –
34 | CC(C)(C)c1cc(-c2ccc(Cl)cc2)nc2cc(C(=O)N3CCN(c4ccc(-c5nnn[nH]5)cn4)CC3(C)C)oc12 [Example I-531] | 1.5 nM | 2.8 nM | > 2000 nM | > 2000 nM | – | –
35 | Cc1ccc(N2CCN(C(=O)c3cc4nc(-c5ccc(Cl)c(F)c5)cc(C(C)(C)C)c4o3)C(C)(C)C2)nc1-c1nnn[nH]1 [Example I-532] | 0.3 nM | 0.3 nM | > 2000 nM | > 2000 nM | – | –
36 | Cc1ccc(N2CCN(C(=O)c3cc4nc(C5CCC(C)(C)CC5)cc(C(C)(C)C)c4o3)C(C)(C)C2)nc1-c1nnn[nH]1 [Example I-533] | 0.7 nM | 1.7 nM | > 2000 nM | > 2000 nM | – | –
